In ChEMBL document CHEMBL3885861, “Open TG-GATES”:

Organism: Rattus norvegicus
Assay: Open TG-GATES - Regimen: Single
Format: toxicity, organism-based, Sprague-Dawley
Parameters: regimen Single, gender Male, age 6 weeks
Details: in vivo, po, 1000 mg/kg, route gavage, dose level High; for APTT / Bas / Eos / Fbg / Hb / Ht / Lym / MCH / MCHC / MCV / Mono / Neu / PT / Plat / RBC / Ret / WBC: tissue Blood; for KIDNEY_L / KIDNEY_R / KIDNEY_TOTAL: tissue Kidney; for LIVER: tissue Liver; for A/G / ALP / ALT / AST / BUN / CRE / Ca / Cl / DBIL / GLC / IP / K / LDH / Na / PL / RALB / TBIL / TC / TG / TP / gamma-GTP: tissue Plasma

## O=C(N[C@H](CO)[C@H](O)c1ccc([N+](=O)[O-])cc1)C(Cl)Cl [CHLORAMPHENICOL]
3 h
  TERMINAL_BW: 221.6 g
  APTT: 17.1 s
  Bas: 0%
  Eos: 1%
  Fbg: 263.6 mg/dL
  Hb: 13.5 g/dL
  Ht: 39.6%
  Lym: 73%
  MCH: 21.7 pg
  MCHC: 34.2%
  MCV: 63.7 fL
  Mono: 3.8%
  Neu: 21.8%
  PT: 14.9 s
  Plat: 112.6 x10_4/uL
  RBC: 622.4 x10_4/ul
  Ret: 7.8%
  WBC: 76.3 x10_2/uL
  KIDNEY_L: 1 g
  KIDNEY_R: 1 g
  KIDNEY_TOTAL: 2 g
  LIVER: 9.5 g
  A/G: 0.9
  ALP: 1586 IU/L
  ALT: 42 IU/L
  AST: 78.4 IU/L
  BUN: 8.4 mg/dL
  CRE: 0.2 mg/dL
  Ca: 10.9 mg/dL
  Cl: 106.6 meq/L
  DBIL: 0.012 mg/dL
  GLC: 182.4 mg/dL
  IP: 9 mg/dL
  K: 4.2 meq/L
  LDH: 56.4 IU/L
  Na: 140 meq/L
  PL: 137.2 mg/dL
  RALB: 2.6 g/dL
  TBIL: 0.064 mg/dL
  TC: 70.4 mg/dL
  TG: 63 mg/dL
  TP: 5.5 g/dL
  gamma-GTP: 1 IU/L
6 h
  TERMINAL_BW: 221.4 g
  APTT: 16.8 s
  Bas: 0%
  Eos: 1%
  Fbg: 278.4 mg/dL
  Hb: 13.9 g/dL
  Ht: 45.6%
  Lym: 73.8%
  MCH: 21.1 pg
  MCHC: 30.4%
  MCV: 69.3 fL
  Mono: 2%
  Neu: 23.2%
  PT: 15 s
  Plat: 113 x10_4/uL
  RBC: 657.2 x10_4/ul
  Ret: 7.7%
  WBC: 59.5 x10_2/uL
  KIDNEY_L: 0.9 g
  KIDNEY_R: 0.9 g
  KIDNEY_TOTAL: 1.8 g
  LIVER: 8.5 g
  A/G: 0.9
  ALP: 1369 IU/L
  ALT: 33.2 IU/L
  AST: 69 IU/L
  BUN: 7.8 mg/dL
  CRE: 0.2 mg/dL
  Ca: 11.1 mg/dL
  Cl: 107 meq/L
  DBIL: 0.01 mg/dL
  GLC: 186.2 mg/dL
  IP: 10.3 mg/dL
  K: 4.1 meq/L
  LDH: 57.6 IU/L
  Na: 141.4 meq/L
  PL: 128.2 mg/dL
  RALB: 2.6 g/dL
  TBIL: 0.072 mg/dL
  TC: 70 mg/dL
  TG: 26.2 mg/dL
  TP: 5.5 g/dL
  gamma-GTP: 1 IU/L
9 h
  TERMINAL_BW: 221.1 g
  APTT: 17 s
  Bas: 0%
  Eos: 0.8%
  Fbg: 281.4 mg/dL
  Hb: 13.8 g/dL
  Ht: 44%
  Lym: 80.2%
  MCH: 21.4 pg
  MCHC: 31.4%
  MCV: 68.2 fL
  Mono: 1.6%
  Neu: 17.8%
  PT: 15.6 s
  Plat: 107.2 x10_4/uL
  RBC: 644.8 x10_4/ul
  Ret: 7.5%
  WBC: 53.4 x10_2/uL
  KIDNEY_L: 0.9 g
  KIDNEY_R: 0.9 g
  KIDNEY_TOTAL: 1.8 g
  LIVER: 8.5 g
  A/G: 0.9
  ALP: 1491.8 IU/L
  ALT: 30 IU/L
  AST: 68 IU/L
  BUN: 8.2 mg/dL
  CRE: 0.2 mg/dL
  Ca: 10.9 mg/dL
  Cl: 105.4 meq/L
  DBIL: 0.018 mg/dL
  GLC: 176.6 mg/dL
  IP: 10.6 mg/dL
  K: 4.2 meq/L
  LDH: 69.6 IU/L
  Na: 140 meq/L
  PL: 125.8 mg/dL
  RALB: 2.5 g/dL
  TBIL: 0.074 mg/dL
  TC: 66.6 mg/dL
  TG: 44 mg/dL
  TP: 5.5 g/dL
  gamma-GTP: 1 IU/L
24 h
  TERMINAL_BW: 222.4 g
  APTT: 16.6 s
  Bas: 0%
  Eos: 0.8%
  Fbg: 255.8 mg/dL
  Hb: 14.2 g/dL
  Ht: 44.2%
  Lym: 83%
  MCH: 21.3 pg
  MCHC: 32.1%
  MCV: 66.4 fL
  Mono: 4%
  Neu: 11.6%
  PT: 15.7 s
  Plat: 121.3 x10_4/uL
  RBC: 665 x10_4/ul
  Ret: 6.3%
  WBC: 54.2 x10_2/uL
  KIDNEY_L: 0.9 g
  KIDNEY_R: 0.9 g
  KIDNEY_TOTAL: 1.9 g
  LIVER: 9.4 g
  A/G: 0.9
  ALP: 1571.8 IU/L
  ALT: 45.8 IU/L
  AST: 79.2 IU/L
  BUN: 14.4 mg/dL
  CRE: 0.2 mg/dL
  Ca: 11.6 mg/dL
  Cl: 106.8 meq/L
  DBIL: 0.016 mg/dL
  GLC: 184.8 mg/dL
  IP: 9.1 mg/dL
  K: 4.1 meq/L
  LDH: 64 IU/L
  Na: 142.2 meq/L
  PL: 122.4 mg/dL
  RALB: 2.6 g/dL
  TBIL: 0.068 mg/dL
  TC: 65.2 mg/dL
  TG: 50.8 mg/dL
  TP: 5.6 g/dL
  gamma-GTP: 1 IU/L
